Assay: Balance study: n-3 and n-6 PUFA balance (intake, excretion, accretion, metabolic consumption)
Assay type: in vivo, rat
Conditions: 24 h feces at 8 weeks postweaning, percentage of intake
Procedure: All procedures were performed in accordance with the policies set out by the Canadian Council on Animal Care and were approved by the Animal Ethics Committee at the University of Toronto. Three Long Evans dams each with 18-day-old male Long Evans pups were ordered from Charles River Laboratories (St. Constant, QC, Canada). Pups were nonlittermates and each dam was housed with pups. Upon arrival, dams were allocated to one of the three diets (described below). When the pups were 21 days old, two pups from each dam were euthanized by high-energy head-focused microwave fixation (4.5 kW for 0.9 s). Brains were removed immediately and stored at -80°C until lipid analysis. Bodies were also stored at -80°C immediately after euthanization until analysis. The brains and bodies of these pups were used to determine the PUFA content of the rats at weaning (i.e., baseline PUFA content). […] For the balance study, the rats were weighed, food intake was determined, and uneaten food was replaced with fresh food on a weekly basis. Rats were euthanized by CO2 asphyxiation. Brains were removed and dissected sagittally. Carcasses and one half brain per rat were stored immediately at -80°C (to be later analyzed for lipid content). […] For the steady-state infusion study and the brain DHA uptake study, a jugular vein catheter was surgically implanted into the rats. […] Carcasses were thawed overnight in a refrigerator at 3°C, cut into pieces, and passed through a #12 hand grinder. After the whole body had passed through the grinder once, the homogenate was mixed together by hand and passed at least one more time through the grinder until the mixture was sufficiently homogeneous. Due to the small size of the pups all of the 21-day-old pup bodies were passed through the grinder together. […] New chloroform was added to the remaining aqueous phase, the mixture was once again centrifuged, and the chloroform layer was extracted and added to the previously extracted chloroform layer. […] One hemisphere was thawed briefly and dissected over ice to separate the brainstem, cerebellum, cortex, hippocampus, striatum, and the rest of the brain. […] The homogenizer was then washed with methanol, which was then transferred to the test tube containing the homogenized brain and KCl. […] The chloroform layer was extracted and new chloroform was added to the aqueous phase. […] At 8 weeks postweaning all the feces produced by a rat in 24 h were collected. […] Mean PUFA excretion (percentage of intake) was determined and applied to all animals to determine PUFA excretion. […] Nu-Check Prep, Elysian, MN) was added to the TLE. […] Samples were injected in […] mode. The injector and detector ports were set at 250°C. […] The carrier gas was helium, set to a constant flow rate of 0.7 ml/min. Peaks were identified by retention times of authentic FAME standards (Nu-Chek Prep). […] The concentrations were expressed on a per gram basis then multiplied by total weight of the tissue to determine the total amount of each fatty acid in the tissue.

- Dietary PUFA excreted in the feces: 0.5 ± 0.05%
SMILES: CCCCC/C=C\C/C=C\CCCCCCCC(=O)O [LNA, linoleic acid]

— publication PMC3927474, “Whole body synthesis rates of DHA from α-linolenic acid are greater than brain DHA accretion and uptake rates in adult rats” (Journal of Lipid Research, 2014)
